IC50 data for 30 compounds are collected here from patent publication US20240270740A1, “INHIBITORS OF CYCLIC GMP-AMP SYNTHASE AND USES THEREOF” (Ventus Therapeutics U.S., Inc., priority 2022, published 2024).

The assay has as its target hcGAS (Homo sapiens, UniProt Q8N884). The assay can be described thus: hcGAS LCMS assay (direct measurement of cGAMP production). In kind it is biochemical. The conditions noted are these: 0.5 nM hcGAS, 100 μM ATP, 100 μM GTP, 25 nM dsDNA, 4 h incubation. The protocol: cGAS catalyzes the cyclization of ATP and GTP to produce cGAMP, which is the activating ligand of STING. Human cGAS (hcGAS) inhibition can thus be quantified by measuring how much cGAMP is formed either indirectly, by monitoring ATP-depletion as in the hcGAS Kinase-Glo assay (as described below), or directly, such as using the hcGAS LCMS assay (as described below).
Compounds were tested for their h-cGAS inhibition activity using direct measurement of cGAMP production by LC/MS. Briefly, compounds were incubated with enzyme and substrates for 4 hours (see Table C), before the reaction was stopped with 3 volumes of 70/30 Acetonitrile/H2O mix containing 0.15 mM cGAMP-^13C10^5N5 as internal standard and mixed for […]. After centrifugation (3700 rpm, 10 min, 10° Celsius), […] of each reaction was collected and mixed to equal volume of Acetonitrile. Samples were then analyzed on Qexective (Column: XBridge BEH Amide Column, 130 Å, 3.5 μm, 3 mm×50 mm, Mobile phase A: 10 mM Ammonium acetate in 95/5% H2O/Acetonitrile (0.5% DMSO), Mobile phase B: Acetonitrile (0.5% DMSO).
The results of the assay, expressed as IC50 values, are reported in Table D with the following designations: A represents an IC50 value<0.005 μM; B represents an IC50 value≥0.005 μM and <0.02 μM, C represents an IC50 value≥0.02 μM and <0.06 μM; D represents an IC50 value≥0.06 and <0.2 μM; E represents an IC50 value≥0.2.

Usually IC50 stands for the concentration at which inhibition is half-maximal.

hcGAS, sequence (Q8N884 whole entry): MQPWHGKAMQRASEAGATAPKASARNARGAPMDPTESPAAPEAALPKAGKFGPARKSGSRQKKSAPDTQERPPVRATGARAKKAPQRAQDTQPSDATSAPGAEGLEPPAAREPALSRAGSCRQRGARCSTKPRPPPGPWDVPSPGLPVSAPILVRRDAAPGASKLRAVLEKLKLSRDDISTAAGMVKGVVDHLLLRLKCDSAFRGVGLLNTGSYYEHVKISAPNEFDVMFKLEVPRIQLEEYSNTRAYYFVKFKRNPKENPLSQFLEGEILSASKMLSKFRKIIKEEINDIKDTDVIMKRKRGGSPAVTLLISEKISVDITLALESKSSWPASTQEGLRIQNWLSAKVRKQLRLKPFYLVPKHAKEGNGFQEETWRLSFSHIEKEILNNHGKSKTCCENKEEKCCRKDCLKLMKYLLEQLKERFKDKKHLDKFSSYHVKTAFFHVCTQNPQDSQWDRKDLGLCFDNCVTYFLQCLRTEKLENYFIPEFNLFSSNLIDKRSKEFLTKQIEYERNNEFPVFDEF

With `COC[C@@H](C1CC1)N1CCOc2c1cc(C(=O)Nc1nnc(-n3nccc3C)s1)oc2=O` [Compound 225, (R)-1-(1-cyclopropyl-2-methoxyethyl)-N-(5-(5-methyl-1H-pyrazol-1-yl)-1,3,4-thiadiazol-2-yl)-5-oxo-1,2,3,5-tetrahydropyrano[3,4-b][1,4]oxazine-7-carboxamide], the 50% inhibitory concentration (IC50) was less than 5 nM.
The figure for `COC[C@@H](Nc1cc(C(=O)Nc2nnc(-n3nccc3C)s2)oc(=O)c1OC)c1ccccc1` [Compound 49, (S)-3-methoxy-4-((2-methoxy-1-phenylethyl)amino)-N-(5-(5-methyl-1H-pyrazol-1-yl)-1,3,4-thiadiazol-2-yl)-2-oxo-2H-pyran-6-carboxamide] is 20 to 60 nM.
Next, `COC[C@H](Nc1cc(C(=O)Nc2nnc(-n3nccc3C)s2)oc(=O)c1OC)C(C)C` [Compound 78, (R)-3-methoxy-4-((1-methoxy-3-methylbutan-2-yl)amino)-N-(5-(5-methyl-1H-pyrazol-1-yl)-1,3,4-thiadiazol-2-yl)-2-oxo-2H-pyran-6-carboxamide]: less than 5 nM.
The figure for `COCCN(CCO)c1cc(C(=O)Nc2nnc(-n3nccc3C)s2)oc(=O)c1OC` (single isomer, unassigned) [Compound 157, 4-((2-hydroxyethyl)(2-methoxyethyl)amino)-3-methoxy-N-(5-(5-methyl-1H-pyrazol-1-yl)-1,3,4-thiadiazol-2-yl)-2-oxo-2H-pyran-6-carboxamide] is not below 200 nM; for `COc1c(NC2COC(C)(C)OC2)cc(C(=O)Nc2nnc(-n3nccc3C)s2)oc1=O` [Compound 195, 4-((2,2-dimethyl-1,3-dioxan-5-yl)amino)-3-methoxy-N-(5-(5-methyl-1H-pyrazol-1-yl)-1,3,4-thiadiazol-2-yl)-2-oxo-2H-pyran-6-carboxamide] it is 5 to 20 nM.
With `COC[C@H]1CCN1c1cc(C(=O)Nc2nnc(-n3nccc3C)s2)oc(=O)c1OC` [Compound 194, (R)-3-methoxy-4-(2-(methoxymethyl)azetidin-1-yl)-N-(5-(5-methyl-1H-pyrazol-1-yl)-1,3,4-thiadiazol-2-yl)-2-oxo-2H-pyran-6-carboxamide], the IC50 lay within 5 to 20 nM.
The figure for `COc1c(NC[C@H]2CCCO2)cc(C(=O)Nc2nnc(-n3nccc3C)s2)oc1=O` [Compound 20, (R)-3-methoxy-N-(5-(5-methyl-1H-pyrazol-1-yl)-1,3,4-thiadiazol-2-yl)-2-oxo-4-(((tetrahydrofuran-2-yl)methyl)amino)-2H-pyran-6-carboxamide] is 20 to 60 nM; for `COCCNc1cc(C(=O)Nc2nnc(-c3sccc3C#N)s2)oc(=O)c1OC` [Compound 145, N-(5-(3-cyanothiophen-2-yl)-1,3,4-thiadiazol-2-yl)-3-methoxy-4-((2-methoxyethyl)amino)-2-oxo-2H-pyran-6-carboxamide] it is not below 200 nM.
`COc1c(N[C@H]2CC[C@H]2O)cc(C(=O)Nc2nnc(-c3c(Cl)ccn3C)s2)oc1=O` (single isomer, unassigned) [Compound 53] returned an IC50 of less than 5 nM.
In turn, `COC[C@H]1CC[C@H](COC)N1c1cc(C(=O)Nc2nnc(-n3nccc3C)s2)oc(=O)c1OC` (racemic) [Rac-209, 4-((trans)-2,5-bis(methoxymethyl)pyrrolidin-1-yl)-3-methoxy-N-(5-(5-methyl-1H-pyrazol-1-yl)-1,3,4-thiadiazol-2-yl)-2-oxo-2H-pyran-6-carboxamide] came in with a concentration for half-maximal inhibition (IC50) of 5 to 20 nM.
The figure for `COC[C@H]1[C@H](OC)CCN1c1cc(C(=O)Nc2nnc(-n3nccc3C)s2)oc(=O)c1OC` [Compound 211, 3-methoxy-4-((2S,3R)-3-methoxy-2-(methoxymethyl)pyrrolidin-1-yl)-N-(5-(5-methyl-1H-pyrazol-1-yl)-1,3,4-thiadiazol-2-yl)-2-oxo-2H-pyran-6-carboxamide] is 5 to 20 nM.
Compound `COCCNc1cc(C(=O)Nc2nnc(-c3c(C#N)csc3C)s2)oc(=O)c1OC` [Compound 140, N-(5-(4-cyano-2-methylthiophen-3-yl)-1,3,4-thiadiazol-2-yl)-3-methoxy-4-((2-methoxyethyl)amino)-2-oxo-2H-pyran-6-carboxamide] gave an IC50 of 60 to 200 nM.
As for `COc1c(N2CCCS2(=O)=O)cc(C(=O)Nc2nnc(-n3nccc3C)s2)oc1=O` [Compound 99, 4-(1,1-dioxidoisothiazolidin-2-yl)-3-methoxy-N-(5-(5-methyl-1H-pyrazol-1-yl)-1,3,4-thiadiazol-2-yl)-2-oxo-2H-pyran-6-carboxamide], the half-inhibitory concentration (IC50) is 20 to 60 nM.
The compound `COc1c(N[C@@H]2CCC[C@@H]2OC)cc(C(=O)Nc2nnc(-c3c(Cl)ccn3C)s2)oc1=O` (single isomer, unassigned) [48*] yielded an IC50 of 5 to 20 nM.
`COC[C@@H](Nc1cc(C(=O)Nc2nnc(-n3nccc3C)s2)oc(=O)c1OC)c1ccccc1OC` (single isomer, unassigned) [199*] gave an IC50 of less than 5 nM.
The compound `COC[C@@H](c1ccccc1)N1CCOc2c1cc(C(=O)Nc1nnc(-n3nccc3C)s1)oc2=O` [Compound 227, (R)-1-(2-methoxy-1-phenylethyl)-N-(5-(5-methyl-1H-pyrazol-1-yl)-1,3,4-thiadiazol-2-yl)-5-oxo-1,2,3,5-tetrahydropyrano[3,4-b][1,4]oxazine-7-carboxamide] registered a 50% inhibitory concentration (IC50) of less than 5 nM.
The figure for `COc1c(N[C@@H]2CC[C@@H]2O)cc(C(=O)Nc2nnc(-c3c(Cl)ccn3C)s2)oc1=O` (single isomer, unassigned) [Compound 54] is less than 5 nM; for `COCCOc1c(N[C@H]2CCC[C@H]2O)cc(C(=O)Nc2nnc(-c3c(Cl)ccn3C)s2)oc1=O` [Compound 85, N-(5-(3-chloro-1-methyl-1H-pyrrol-2-yl)-1,3,4-thiadiazol-2-yl)-4-(((1S,2R)-2-hydroxycyclopentyl)amino)-3-(2-methoxyethoxy)-2-oxo-2H-pyran-6-carboxamide] it is 5 to 20 nM; for `COc1c(N[C@@H]2CC[C@@H]2OC)cc(C(=O)Nc2nnc(-c3c(Cl)ccn3C)s2)oc1=O` (single isomer, unassigned) [Compound 132*] it is 5 to 20 nM.
The figure for `Cc1ccnn1-c1nnc(NC(=O)c2cc3c(c(=O)o2)OCCN3[C@@H]2CCC[C@@H]2C#N)s1` [Compound 223, 1-((1R,2S)-2-cyanocyclopentyl)-N-(5-(5-methyl-1H-pyrazol-1-yl)-1,3,4-thiadiazol-2-yl)-5-oxo-1,2,3,5-tetrahydropyrano[3,4-b][1,4]oxazine-7-carboxamide] is 5 to 20 nM; for `CC[C@H](COC)Nc1cc(C(=O)Nc2nnc(-n3nccc3C)s2)oc(=O)c1OC` (single isomer, unassigned) [191*] it is 20 to 60 nM; for `COc1c(N[C@@H]2CCC[C@@H]2C#N)cc(C(=O)Nc2nnc(-n3nccc3C)s2)oc1=O` (single isomer, unassigned) [Compound 73] it is less than 5 nM.
The figure for `COc1c(N[C@H]2CCN(C)C2=O)cc(C(=O)Nc2nnc(-n3nccc3C)s2)oc1=O` (single isomer, unassigned) [71*] is 5 to 20 nM; for `COc1c(N[C@H]2CC[C@@H](OC)C2)cc(C(=O)Nc2nnc(-n3nccc3C)s2)oc1=O` (single isomer, unassigned) [124*] it is 5 to 20 nM; for `COc1c(N2C[C@H](OC)CC2=O)cc(C(=O)Nc2nnc(-n3nccc3C)s2)oc1=O` [Compound 154, (R)-3-methoxy-4-(4-methoxy-2-oxopyrrolidin-1-yl)-N-(5-(5-methyl-1H-pyrazol-1-yl)-1,3,4-thiadiazol-2-yl)-2-oxo-2H-pyran-6-carboxamide] it is 20 to 60 nM.
`COc1c(N[C@@H]2c3ccccc3C[C@@H]2OC)cc(C(=O)Nc2nnc(-n3nccc3C)s2)oc1=O` (racemic) [Rac-164, 3-methoxy-4-(((1R,2S)-2-methoxy-2,3-dihydro-1H-inden-1-yl)amino)-N-(5-(5-methyl-1H-pyrazol-1-yl)-1,3,4-thiadiazol-2-yl)-2-oxo-2H-pyran-6-carboxamide] gave an IC50 of 5 to 20 nM.
With `COC[C@H](Nc1cc(C(=O)Nc2nnc(-n3nccc3C)s2)oc(=O)c1OC)c1ccccc1OC` (single isomer, unassigned) [198*], the IC50 fell in the range of 20 to 60 nM.
`COc1c(N[C@H]2CCC[C@@H]2OC)cc(C(=O)Nc2nnc(-n3nccc3C)s2)oc1=O` (single isomer, unassigned) [4*] had an IC50 of 5 to 20 nM.
On to `COC[C@H](Cc1ccccc1)Nc1cc(C(=O)Nc2nnc(-n3nccc3C)s2)oc(=O)c1OC` [Compound 165, (S)-3-methoxy-4-((1-methoxy-3-phenylpropan-2-yl)amino)-N-(5-(5-methyl-1H-pyrazol-1-yl)-1,3,4-thiadiazol-2-yl)-2-oxo-2H-pyran-6-carboxamide], for which the IC50 was in the range of 60 to 200 nM.
Take `COc1c(N(C)[C@@H]2CCC[C@@H]2OC)cc(C(=O)Nc2nnc(-n3nccc3C)s2)oc1=O` (racemic) [Rac-153, 3-methoxy-4-(((cis)-2-methoxycyclopentyl)(methyl)amino)-N-(5-(5-methyl-1H-pyrazol-1-yl)-1,3,4-thiadiazol-2-yl)-2-oxo-2H-pyran-6-carboxamide]: the half-maximal inhibitory concentration (IC50) lay within 5 to 20 nM.
